These results are taken from PubChem BioAssay AID1645848.

≈ marks a conversion by molar mass, not a printed value. A value given as a limit tells only on which side of the number the result lay.

A word on the kinetic solubility: it is the concentration staying in solution when a stock, usually in DMSO, is diluted into the medium.

The conditions of the data set: buffer; pH 7.4; 6.0 h; 150.0 µM.
Regarding `CCOC(=O)c1ccc(-n2c(C)cc(-c3nnc4n3CCCCC4)c2C)cc1`, the solubility (kinetic) was greater than 56 µg/mL.

As to `NC(=O)C1CCN(c2nc(-c3ccc4ccccc4c3)cs2)CC1`, the solubility (kinetic) worked out at 3.67 µg/mL (≈ 10.9 µM).

As to `O=C(NCc1cccnc1)c1nc(-c2ccc(Cl)nc2)c2cnccn12`, the solubility (kinetic) came to 4.69 µg/mL (≈ 12.9 µM).

In the case of `O=C(Cc1ccc(Cl)c(Cl)c1)Nc1ccc(S(=O)(=O)Nc2ccccc2)cc1`, the solubility (kinetic) was less than 1 µg/mL.

The molecule `Cc1ccc(C(=O)Nc2ccc(CN3CCN(C)CC3)c(C(F)(F)F)c2)cc1C#Cc1cnc2cccnn12` yielded a solubility (kinetic) of less than 1 µg/mL.

Molecule `O=C(NCCO)c1cccc(-c2cc(Nc3ccc(OC(F)(F)F)cc3)ncn2)c1` registered a solubility (kinetic) of 8.93 µg/mL (≈ 21.3 µM).

In the case of `Cc1cn2c(-c3cn[nH]c3)cnc2c(Nc2ccc(C(=O)N3CCNCC3)cc2F)n1`, the kinetic solubility worked out at 13.4 µg/mL (≈ 31.8 µM).

In turn, `Ic1ccccc1CNC1C2CCN(CC2)C1C(c1ccccc1)c1ccccc1` (stereo unspecified) displayed a solubility (kinetic) greater than 75 µg/mL.

`Oc1ccc(CNc2cccnc2)c2cccnc12` showed a solubility (kinetic) of 24.5 µg/mL (≈ 97.5 µM).

`Cn1nnnc1Sc1ncnc2scc(-c3ccc(F)cc3)c12` yielded a solubility (kinetic) of 15.3 µg/mL (≈ 44.5 µM).

Regarding `O=C(Nc1ccccc1C(=O)Nc1ccccc1C(=O)NCc1ccco1)c1ccco1`, the kinetic solubility came to 4.45 µg/mL (≈ 10.4 µM).

`CNc1sc(-c2cccc3ccccc23)nc1C#N` gave a kinetic solubility of less than 1 µg/mL.

The molecule `Cc1sc2c(c1C)C(c1ccc(Cl)cc1)=N[C@H](CC(=O)NCCCCNC(=O)COc1cccc3c1C(=O)N([C@H]1CCC(=O)NC1=O)C3=O)c1nnc(C)n1-2` displayed a solubility (kinetic) of 63.8 µg/mL (≈ 81.2 µM).

In turn, `CNc1ncc(-c2cccc3ccccc23)o1` yielded a solubility (kinetic) of 25.4 µg/mL (≈ 113 µM).

As to `CC(=O)Nc1ccc(C(=O)Nc2ccc3c(c2)N(C2CCCC2)C(=O)c2ccccc2S3)cc1`, the kinetic solubility was less than 1 µg/mL.

`Fc1ccccc1-c1ccc(Nc2nc(-c3ccncc3)nc3ccccc23)cc1F` came in with a solubility (kinetic) of less than 1 µg/mL.

In the case of `O=C(Nc1ccccc1F)c1nc(S(=O)(=O)Cc2ccccc2F)ncc1Cl`, the solubility (kinetic) was determined as 3.63 µg/mL (≈ 8.57 µM).

On to `CCN(CCN(C)C)C(=O)C1CCN(S(=O)(=O)c2c(C)noc2/C=C/c2ccccc2F)CC1`, for which the solubility (kinetic) is greater than 49 µg/mL.

With `O=c1[nH]c(C2CCN(CC3CCCCC3)CC2)nn1Cc1ccccc1`, the solubility (kinetic) is greater than 52 µg/mL.

`C[C@H]1CCC[C@H](O)CCC/C=C/c2cc(O)cc(O)c2C(=O)O1`: the kinetic solubility worked out at 17.1 µg/mL (≈ 53.2 µM).

Regarding `COc1cccc(CNc2ccc(S(=O)(=O)Nc3nccs3)cc2)c1N`, the solubility (kinetic) was greater than 58 µg/mL.

For `COC(=O)CNC(=O)c1nc(-c2ccc([S+](C)(=O)[O-])cc2)c2ccccn12`, the solubility (kinetic) was 2.27 µg/mL (≈ 5.87 µM).

The molecule `CC(=O)Nc1cc(-c2nc(Nc3ccc(F)c(F)c3)c3ccccc3n2)ccn1` registered a solubility (kinetic) of less than 1 µg/mL.

Turning to `Fc1ccc(Cl)cc1-c1nc(Nc2ccncc2)c2nccnc2n1`, the kinetic solubility was 1.6 µg/mL (≈ 4.54 µM).

In the case of `CCOC(=O)c1ccc(NC(=O)N2Cc3[nH]cnc3C[C@H]2c2nc(C(C)C)no2)cc1`, the kinetic solubility was greater than 63 µg/mL.

`COc1ccc(-c2ccc3ncc(Nc4cccnc4OC)n3n2)cn1` came in with a solubility (kinetic) of 5.33 µg/mL (≈ 15.3 µM).

`NC(=O)C1CCN(c2nc(-c3ccc(OCc4ccccc4)cc3)cs2)CC1` showed a solubility (kinetic) of less than 1 µg/mL.

With `CC(=O)c1c(C)[nH]c(C(=O)Nc2ccc(C)c(S(=O)(=O)N3CCCCCC3)c2)c1C`, the kinetic solubility was 1.05 µg/mL (≈ 2.44 µM).

In turn, `COC(=O)[C@]12CCC(C)(C)C[C@H]1[C@H]1C(=O)C=C3[C@@]4(C)C=C(C#N)C(=O)C(C)(C)[C@@H]4CC[C@@]3(C)[C@]1(C)CC2` came in with a kinetic solubility of 1.99 µg/mL (≈ 3.93 µM).

For the molecule `O=C(NCCN1CCOCC1)C1CC(=O)N(c2n[nH]c3cc(Br)ccc23)C1` (stereo unspecified), the solubility (kinetic) worked out at 32.5 µg/mL (≈ 74.5 µM).

`CCOC(=O)c1ccc(NC2CCCCC2)c(N)c1` returned a solubility (kinetic) of 31 µg/mL (≈ 118 µM).

In turn, `CC1=C(C(=O)Nc2ccc(Cl)cc2)C(c2ccccc2C)n2ncc(C(=O)Nc3ccc(C)cc3)c2N1` (stereo unspecified) showed a solubility (kinetic) of less than 1 µg/mL.

`NCC(=O)Nc1cncc(-c2nn3c(=O)cc(N4CCNCC4)nc3s2)c1` returned a kinetic solubility greater than 57 µg/mL.

With `Cc1cc(C)nc(NC(=S)N2CCN(c3ccc(C(F)(F)F)cc3[N+](=O)[O-])CC2)c1`, the kinetic solubility was found to be 6.89 µg/mL (≈ 15.7 µM).

Turning to `Clc1ccc(C2(c3ccc(-c4cn[nH]c4)cc3)CCNCC2)cc1`, the kinetic solubility is greater than 50 µg/mL.

As to `Cc1ccc(-n2ncc3c(NCCCN(C)C)ncnc32)cc1Cl`, the kinetic solubility is greater than 51 µg/mL.

`COc1ccc(CCNc2ncnc3c2c(-c2ccccc2)cn3-c2cccc(Cl)c2)cc1OC` came in with a kinetic solubility of less than 1 µg/mL.

Consider `COc1ccc(NC(=O)c2c(C)cccc2C)cc1[S+](=O)([O-])N1CCCCC1`, for which the solubility (kinetic) was determined as 38.8 µg/mL (≈ 96.3 µM).

Regarding `COc1ccccc1NS(=O)(=O)c1cccc(NC(=O)c2[nH]c(C)c(C(C)=O)c2C)c1`, the kinetic solubility came out at 15.2 µg/mL (≈ 34.4 µM).

In the case of `CNc1oc(-c2ccc(-c3ccccc3)cc2)nc1C#N`, the kinetic solubility is less than 1 µg/mL.

For `CN(Cc1cnc2nc(N)nc(N)c2n1)c1ccc(C(=O)N[C@@H](CCC(=O)O)C(=O)O)cc1`, the kinetic solubility is greater than 67 µg/mL.

Consider `NC(=O)N1CCCC(C(=O)N2CCCN(c3ccc(F)cc3)CC2)C1` (stereo unspecified), for which the solubility (kinetic) is greater than 51 µg/mL.

In turn, `O=C(Nc1ncnc2sc3c(c12)CCCCC3)c1ccco1` returned a kinetic solubility of 1.72 µg/mL (≈ 5.49 µM).

`COc1ccc(NS(=O)(=O)c2ccc(C)cc2)c(C(=O)Nc2nc(-c3ccccc3)cs2)c1` showed a kinetic solubility of less than 1 µg/mL.

The molecule `CN(Cc1ccccc1)C(=O)c1ccc(S(=O)(=O)Nc2ccccc2)cc1` registered a solubility (kinetic) of 22.5 µg/mL (≈ 59.2 µM).

For the molecule `CCOc1ccc(C(=O)Nc2ccc(S(=O)(=O)N3CCCCC3c3cccnc3)cc2)cc1` (stereo unspecified), the solubility (kinetic) is less than 1 µg/mL.

For the molecule `Cc1ccc(Cl)cc1NS(=O)(=O)c1cc2c(cc1F)NC(=O)CC2`, the kinetic solubility is 1.76 µg/mL (≈ 4.79 µM).

The molecule `Cc1ccc(N2CCN(c3cnn(-c4nc5ccccc5s4)c(=O)c3Cl)CC2C)cc1` (stereo unspecified) displayed a solubility (kinetic) of less than 1 µg/mL.

The molecule `CCOc1ccc(NC(=O)CSC2=Nc3ccccc3C3=NC(CC(=O)NCc4cccs4)C(=O)N23)cc1` (stereo unspecified) came in with a kinetic solubility of 23.8 µg/mL (≈ 43.4 µM).

Take `CCOc1cccc(C(=O)Nc2nc3c(s2)CC(C(C)(C)C)CC3)c1` (stereo unspecified): the kinetic solubility is less than 1 µg/mL.

For the molecule `COc1ccc(N(C)C(=O)c2cc3c(s2)-c2ccccc2OC3)cc1`, the kinetic solubility is less than 1 µg/mL.

For the molecule `COc1ccc(NC(=O)c2[nH]c(C)cc2C)cc1S(=O)(=O)Nc1ccc(Br)cc1`, the solubility (kinetic) was less than 1 µg/mL.

Molecule `Cl.c1ccc(Nc2nc(NCc3ccco3)c3ccccc3n2)cc1` returned a kinetic solubility of less than 1 µg/mL.

Consider `Cc1c([C@@H](C)C2NC[C@H](C)C[C@@H]2O)ccc2c1C[C@@H]1[C@H]2CC=C2C[C@@H](O)CC[C@@]21C` (stereo partly specified), for which the kinetic solubility was 40.9 µg/mL (≈ 99.7 µM).

For `O=C(Nc1ccc2c(N3CCOCC3)ncnc2c1)c1cccc(Br)c1`, the kinetic solubility turned out to be 9.48 µg/mL (≈ 22.9 µM).

On to `COc1cccc(NC(=O)c2cccc3c(=O)c4c([nH]c23)CCCC4)c1`, for which the kinetic solubility was less than 1 µg/mL.

Consider `NC(=O)C1CCN(c2ncc(-c3cccc(N4CCOCC4)c3)s2)CC1`, for which the kinetic solubility was greater than 55 µg/mL.

The molecule `Cc1nc(NCc2ccco2)nc2c1C(=O)CC(C)C2` (stereo unspecified) displayed a kinetic solubility greater than 40 µg/mL.

Molecule `O=C(Nc1ccc(S(=O)(=O)Nc2nccs2)cc1)c1ccc(-c2ccccc2)cc1` displayed a solubility (kinetic) of less than 1 µg/mL.

`CCN(CC)S(=O)(=O)c1ccc(N2CCOCC2)c(NC(=O)c2[nH]c(C)c(C(C)=O)c2C)c1` registered a kinetic solubility of 3.85 µg/mL (≈ 8.08 µM).

Consider `O=C(c1ccc2ncccc2c1)N1CCc2c(nc3cc[nH]n3c2=O)C1`, for which the kinetic solubility amounted to 11.2 µg/mL (≈ 32.3 µM).

On to `Cc1ccnc(NC(=S)N2CCN(c3ccc(C(F)(F)F)cc3)CC2)c1`, for which the solubility (kinetic) was less than 1 µg/mL.

For the molecule `Cc1ccc(S(=O)(=O)Nc2cnccc2C(=O)NCc2ccccc2)cc1`, the kinetic solubility is greater than 56 µg/mL.

Molecule `O=C(Nc1ccc(C(=O)N2CCCC2)cc1)c1ccccc1F` displayed a solubility (kinetic) greater than 46 µg/mL.

`Cc1cc(Br)ccc1NC(=O)C(NS(=O)(=O)c1cccs1)c1ccccc1` (stereo unspecified) displayed a kinetic solubility of less than 1 µg/mL.

Molecule `O=C(Nc1cccc(S(=O)(=O)C(F)(F)F)c1)c1ccccc1NC(=O)c1ccccc1OCC(F)(F)F` came in with a solubility (kinetic) of less than 1 µg/mL.

Molecule `COc1cccc(CNc2ccc(S(=O)(=O)Nc3cccc4ccncc34)cc2)c1O` yielded a solubility (kinetic) of less than 1 µg/mL.

In turn, `N#Cc1c(NC(=O)c2cccc3ccccc23)sc2c1CCCC2` gave a solubility (kinetic) of less than 1 µg/mL.

`CC(=O)c1c(C)[nH]c(C(=O)Nc2cccc([S+](=O)([O-])Nc3ccncc3)c2)c1C`: the kinetic solubility was greater than 61 µg/mL.

In the case of `Cc1nc(Nc2n[nH]c3c2CN(C(=O)N[C@H](CN(C)C)c2ccccc2)C3(C)C)c2sccc2n1`, the kinetic solubility is greater than 72 µg/mL.

For `Cc1nnc(N2C(=O)c3oc4ccccc4c(=O)c3C2c2ccc(F)cc2)s1` (stereo unspecified), the solubility (kinetic) was less than 1 µg/mL.

Consider `CC(C)Oc1ccc(CNC(=O)C2CCN(C(=O)N3CCOc4ccc(Cl)cc43)CC2)cc1`, for which the solubility (kinetic) is 9.14 µg/mL (≈ 19.4 µM).

Molecule `C[C@H]1[C@@H](CCC(=O)Nc2ccc(F)cc2)O[C@@H]2O[C@]3(C)CC[C@@H]4[C@H](C)CC[C@@H]1[C@@]24OO3` came in with a solubility (kinetic) of 24 µg/mL (≈ 55.3 µM).

For the molecule `Fc1ccc(-c2csc3ncnc(NCc4ccc5c(c4)OCO5)c23)cc1`, the kinetic solubility turned out to be 0.226 µg/mL (≈ 0.596 µM).

As for `CCOC(=O)c1ccc(N2C(=O)c3[nH]nc(-c4ccc(OC)cc4)c3C2c2ccc(C)cc2)cc1` (stereo unspecified), the kinetic solubility was less than 1 µg/mL.

`Cc1nn(Cc2ccccc2Cl)c(C)c1CN(C)CC(O)COc1ccc(Cl)cc1` (stereo unspecified) displayed a solubility (kinetic) of 55.6 µg/mL (≈ 124 µM).

`COc1ccc2c(ccn2CCC(=O)Nc2ccc3c(c2)C(=O)N2CCC[C@H]2C(=O)N3)c1` returned a solubility (kinetic) greater than 43 µg/mL.

Molecule `Cc1ccc(-c2cc(C(=O)Nc3cccc(S(=O)(=O)Nc4nccs4)c3)c3ccccc3n2)cc1C` registered a kinetic solubility of less than 1 µg/mL.

`N#Cc1cccc(S(=O)(=O)Nc2cnccc2C(=O)Nc2nc(-c3ccccc3)cs2)c1` gave a solubility (kinetic) of 34.3 µg/mL (≈ 74.3 µM).

For `CCC(C)N(C)C(=O)c1cc2ccccc2c(-c2ccccc2Cl)n1` (stereo unspecified), the kinetic solubility turned out to be 38.6 µg/mL (≈ 109 µM).

`Fc1ccc(Nc2nc(Nc3ccncc3)nc3ccccc23)cc1F` displayed a solubility (kinetic) of 2.19 µg/mL (≈ 6.25 µM).

Turning to `Cc1ccc(-c2cc(C(=O)Nc3ccncc3)c3ccccc3n2)cc1`, the solubility (kinetic) was less than 1 µg/mL.

With `C[C@H]1CN(C(=O)c2nn(C)c3ccccc23)C[C@@H]1c1nc(-c2ccncc2)no1`, the kinetic solubility was determined as 34.9 µg/mL (≈ 89.8 µM).

For the molecule `O=C1NCc2ccc(-c3cc4c(ccn4Cc4cccnc4)c(C4=CCOCC4)n3)cc21`, the kinetic solubility turned out to be 54 µg/mL (≈ 128 µM).

`C=Cc1ccc(Cn2c(C(=O)O)c(CNC3CCCCC3)c3ccc(OC)cc32)cc1` displayed a kinetic solubility of less than 1 µg/mL.

Regarding `CC1CCc2cc(F)ccc2N1C(=O)CSc1nnc2c(n1)[nH]c1ccccc12` (stereo unspecified), the kinetic solubility is less than 1 µg/mL.
